In patent publication US9540343B2 (Gilead Sciences, Inc., priority 2011, dated 2017):

Key:
HIV-IIIb = assay: Test A: Antiviral assay in MT4 cells; type: cell-based, HIV-1; settings: Human immunodeficiency virus 1, IIIB, MT4, 120 h, read-out: % inhibition at 2 μM, percent inhibition of virus-induced cell killing, from dose response curve at 2 uM drug; MT-4 cells infected with HIV-IIIb, 5 days, CellTiter-Glo
in vitro = settings: human, uninfected MT-4 cells, CC50 (nM), same protocol as Test A, CellTiter-Glo
Method in brief: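 Cytoprotection read-out: CellTiter-Glo chemiluminescence after 5 days at 37 °C of HIV-IIIb-infected MT-4 cells (m.o.i. 0.003) with compound in 10-point 3-fold dilutions, quadruplicate, 10% FBS. Cytotoxicity (CC50) measured identically without virus.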

Row | Compound | inhibition at 2 µM (HIV-IIIb) [%] | CC50 at 5 days (in vitro) [nM]
1 | Cc1ccc2ccn(CC(=O)N[C@@H](Cc3cc(F)cc(F)c3)c3ncccc3-c3ccc(F)c(C(N)=O)c3)c2c1 [Example 545, (S)-5-(2-(2-(3,5-difluorophenyl)-1-(2-(6-methyl-1H-indol-1-yl)acetamido)ethyl)pyridin-3-yl)-2-fluorobenzamide] | 37 | 15900
2 | NC(=O)c1cc(-c2cccnc2[C@H](Cc2cc(F)cc(F)c2)NC(=O)Cc2nc3cccc4c3n2CCC4)ccc1F [Example 152D, (S)-5-(2-(2-(3,5-difluorophenyl)-1-(2-(5,6-dihydro-4H-imidazo[4,5,1-ij]quinolin-2-yl)acetamido)ethyl)pyridin-3-yl)-2-fluorobenzamide] | 81 | 28400
3 | NC(=O)c1cc(-c2cccnc2[C@H](Cc2cc(F)cc(F)c2)NC(=O)Cn2c3c(c4ccccc42)CCCC3)ccc1F [Example 563, (S)-5-(2-(2-(3,5-difluorophenyl)-1-(2-(3,4-dihydro-1H-carbazol-9(2H)-yl)acetamido)ethyl)pyridin-3-yl)-2-fluorobenzamide] | 62 | 27000
4 | NC(=O)c1cc(-c2cccnc2[C@H](Cc2cc(F)cc(F)c2)NC(=O)[C@@H]2C[C@H](Oc3ccccc3)CN2)ccc1F [Example 165, (2S,4S)—N—((S)-1-(3-(3-carbamoyl-4-fluorophenyl)pyridin-2-yl)-2-(3,5-difluorophenyl)ethyl)-4-phenoxypyrrolidine-2-carboxamide] | 0 | 52500
5 | Cc1cc(-c2cccnc2[C@H](Cc2cc(F)cc(F)c2)NC(=O)Cn2nc(C(F)(F)F)c3c2CCCC3)cnc1F [Example 89, (S)—N-(2-(3,5-difluorophenyl)-1-(6′-fluoro-5′-methyl-3,3′-bipyridin-2-yl)ethyl)-2-(3-(trifluoromethyl)-4,5,6,7-tetrahydro-1H-indazol-1-yl)acetamide] | 73 | 10700
6 | Cc1ccccc1-c1ccnc(C(Cc2cc(F)cc(F)c2)NC(=O)Cc2c[nH]c3ccc(O)cc23)n1 (stereo not drawn) [Example 11, N-(2-(3,5-difluorophenyl)-1-(4-o-tolylpyrimidin-2-yl)ethyl)-2-(5-hydroxy-1H-indol-3-yl)acetamide] | 0 | 35700
7 | NC(=O)c1cc(-c2cccnc2[C@H](Cc2cc(F)cc(F)c2)NC(=O)Cn2nc(C(F)(F)F)c3c2CCSC3)ccc1F [Example 232, (S)-5-(2-(2-(3,5-difluorophenyl)-1-(2-(3-(trifluoromethyl)-6,7-dihydrothiopyrano[4,3-c]pyrazol-1(4H)-yl)acetamido)ethyl)pyridin-3-yl)-2-fluorobenzamide] | 61 | 18700
8 | NS(=O)(=O)c1cccc(-c2cccnc2[C@H](Cc2cc(F)cc(F)c2)NC(=O)Cc2c[nH]c3ccc(O)cc23)c1 [Example 44, (S)—N-(2-(3,5-difluorophenyl)-1-(3-(3-sulfamoylphenyl)pyridin-2-yl)ethyl)-2-(5-hydroxy-1H-indol-3-yl)acetamide] | 96 | > 52500
9 | NC(=O)c1cc(-c2cccnc2[C@H](Cc2cc(F)cc(F)c2)NC(=O)Cn2cc(C(F)(F)F)nc2COCc2ccccc2)ccc1F [Example 91B, (S)-5-(2-(1-(2-(2-(benzyloxymethyl)-4-(trifluoromethyl)-1H-imidazol-1-yl)acetamido)-2-(3,5-difluorophenyl)ethyl)pyridin-3-yl)-2-fluorobenzamide] | 17 | 22000
10 | Cc1cc2c(ccn2CC(=O)N[C@@H](Cc2cc(F)cc(F)c2)c2ncccc2-c2ccc(F)c(C(N)=O)c2)cn1 [Example 522, (S)-5-(2-(2-(3,5-difluorophenyl)-1-(2-(6-methyl-1H-pyrrolo[3,2-c]pyridin-1-yl)acetamido)ethyl)pyridin-3-yl)-2-fluorobenzamide] | 4 | 47900
11 | O=C(Cn1nc(C(F)F)c2c1C(F)(F)CCC2(F)F)N[C@@H](Cc1cc(F)cc(F)c1)c1ncccc1-c1ccc2cc[nH]c(=O)c2c1 [Example 559D, (S)-2-(3-(difluoromethyl)-4,4,7,7-tetrafluoro-4,5,6,7-tetrahydro-1H-indazol-1-yl)-N-(2-(3,5-difluorophenyl)-1-(3-(1-oxo-1,2-dihydroisoquinolin-7-yl)pyridin-2-yl)ethyl)acetamide] | 96 | 23100
12 | O=C(Cn1nc(C(F)F)c2c1C(F)(F)C1CC21)N[C@@H](Cc1cc(F)cc(F)c1)c1ncccc1-c1ccc2ccncc2c1 (stereo partly drawn) [Example 104, (S)—N-(1-(3-(isoquinolin-7-yl)-pyridin-2-yl)-2-(3,5-difluorophenyl)ethyl)-2-(3-(difluoromethyl)-5,6-dihydro-4,5-(methano)-6,6-difluoro-cyclopenta[c]pyrazol-1(4H)-yl)acetamide] | 32 | 15700
13 | O=C1Cc2cc(-c3cccnc3[C@H](Cc3cc(F)cc(F)c3)NC(=O)Cn3nc(C(F)F)c4c3C(F)(F)C3CC43)ccc2N1 (stereo partly drawn) [Example 400, (S)—N-(1-(3-(oxindole-5-yl)-pyridin-2-yl)-2-(3,5-difluorophenyl)ethyl)-2-(3-(difluoromethyl)-5,6-dihydro-4,5-(methano)-6,6-difluoro-cyclopenta[c]pyrazol-1(4H)-yl)acetamide] | 45 | 23300
14 | NC(=O)c1cc(-c2cccnc2[C@H](Cc2cc(F)cc(F)c2)NC(=O)Cc2cc(=O)[nH]c3ccccc23)ccc1F [Example 201, (S)-5-(2-(2-(3,5-difluorophenyl)-1-(2-(2-oxo-1,2-dihydroquinolin-4-yl)acetamido)ethyl)pyridin-3-yl)-2-fluorobenzamide] | 8 | > 53200
15 | NC(=O)c1cc(-c2cccnc2[C@H](Cc2cc(F)cc(F)c2)NC(=O)C2CCCN2C(=O)C2CCCC2)ccc1F (stereo partly drawn) [Example 153, N—((S)-1-(3-(3-carbamoyl-4-fluorophenyl)pyridin-2-yl)-2-(3,5-difluorophenyl)ethyl)-1-(cyclopentanecarbonyl)pyrrolidine-2-carboxamide] | 10 | 17300
16 | O=C(Cn1nc(C(F)F)c2c1C(F)(F)C1CC21)N[C@@H](Cc1cc(F)cc(F)c1)c1ncccc1-c1ccc(OCC2CC2)cc1 (stereo partly drawn) [Example 206, N—((S)-1-(3-(4-(cyclopropylmethoxy)phenyl)pyridin-2-yl)-2-(3,5-difluorophenyl)ethyl)-2-(3-(difluoromethyl)-5,5-difluoro-3b,4,4a,5-tetrahydro-1H-cyclopropa[3,4]cyclopenta[1,2-c]pyrazol-1-yl)acetamide] | 54 | 20000
17 | NC(=O)c1cc(-c2cccnc2[C@H](Cc2cc(F)cc(F)c2)NC(=O)Cn2ncc3ccc(O)cc32)ccc1F [Example 588, (S)-5-(2-(2-(3,5-difluorophenyl)-1-(2-(6-hydroxy-1H-indazol-1-yl)acetamido)ethyl)pyridin-3-yl)-2-fluorobenzamide] | 2 | 21500
18 | NC(=O)c1cc(-c2cccnc2[C@H](Cc2cc(F)cc(F)c2)NC(=O)Cn2cnc3c(Cl)nccc32)ccc1F [Example 368, (S)-5-(2-(1-(2-(4-chloro-1H-imidazo[4,5-c]pyridin-1-yl)acetamido)-2-(3,5-difluorophenyl)ethyl)pyridin-3-yl)-2-fluorobenzamide] | 2 | 47300
19 | NC(=O)c1cc(-c2cccnc2[C@H](Cc2cc(F)cc(F)c2)NC(=O)[C@H]2CCC(=O)N2)ccc1F [Example 125, (R)—N—((S)-1-(3-(3-carbamoyl-4-fluorophenyl)pyridin-2-yl)-2-(3,5-difluorophenyl)ethyl)-5-oxopyrrolidine-2-carboxamide] | 0 | > 53000
20 | COc1ccc(-c2cccnc2[C@@H](Cc2ccccc2)NC(=O)Cc2c[nH]c3ccc(O)cc23)cc1 [Example 22, (R)-2-(5-hydroxy-1H-indol-3-yl)-N-(1-(3-(4-methoxyphenyl)pyridin-2-yl)-2-phenylethyl)acetamide] | 0 | 45700
21 | NC(=O)c1cc(-c2cccnc2[C@H](Cc2cccc(F)c2)NC(=O)Cn2nc(C(F)(F)F)c3c2CCS(=O)(=O)C3)ccc1F [Example 204, (S)-5-(2-(1-(2-(5,5-dioxido-3-(trifluoromethyl)-6,7-dihydrothiopyrano[4,3-c]pyrazol-1(4H)-yl)acetamido)-2-(3-fluorophenyl)ethyl)pyridin-3-yl)-2-fluorobenzamide] | 1 | > 53200
22 | NC(=O)c1cc(-c2cccnc2[C@H](Cc2cc(F)cc(F)c2)NC(=O)Cn2nc(C(F)(F)F)c3c2CC(=O)CC3)ccc1F [Example 322, (S)-5-(2-(2-(3,5-difluorophenyl)-1-(2-(6-oxo-3-(trifluoromethyl)-4,5,6,7-tetrahydro-1H-indazol-1-yl)acetamido)ethyl)pyridin-3-yl)-2-fluorobenzamide] | 10 | 37100
23 | Nc1cc(-c2cccnc2[C@H](Cc2cc(F)cc(F)c2)NC(=O)Cc2c[nH]c3ccc(F)cc23)ccc1F [Example 470, (S)—N-(1-(3-(3-amino-4-fluorophenyl)pyridin-2-yl)-2-(3,5-difluorophenyl)ethyl)-2-(5-fluoro-1H-indol-3-yl)acetamide] | 68 | 20800
24 | NC(=O)c1cccc(-c2cccnc2[C@H](Cc2cc(F)cc(F)c2)NC(=O)Cc2c[nH]c3ccccc23)c1 [Example 480, (S)-3-(2-(1-(2-(1H-indol-3-yl)acetamido)-2-(3,5-difluorophenyl)ethyl)pyridin-3-yl)benzamide] | 93 | 27800
